# Experimental data: publication PMC2747684, “Sustained antiproliferative mechanisms by RB24, a targeted precursor of multiple inhibitors of epidermal growth factor receptor and a DNA alkylating agent in the A431 epidermal carcinoma of the vulva cell line” (British Journal of Cancer, 2004)
# Experiments:
# [1] = molecular target: T1, epidermal growth factor receptor (EGFR) (Homo sapiens, UniProt P00533)
# [2] = molecular target: T1, epidermal growth factor receptor (EGFR); test: EGF-induced EGFR autophosphorylation in A431 cells (Western blot), with washout reversibility assay; assay type: cell-based
# T1 sequence (P00533 25-1210): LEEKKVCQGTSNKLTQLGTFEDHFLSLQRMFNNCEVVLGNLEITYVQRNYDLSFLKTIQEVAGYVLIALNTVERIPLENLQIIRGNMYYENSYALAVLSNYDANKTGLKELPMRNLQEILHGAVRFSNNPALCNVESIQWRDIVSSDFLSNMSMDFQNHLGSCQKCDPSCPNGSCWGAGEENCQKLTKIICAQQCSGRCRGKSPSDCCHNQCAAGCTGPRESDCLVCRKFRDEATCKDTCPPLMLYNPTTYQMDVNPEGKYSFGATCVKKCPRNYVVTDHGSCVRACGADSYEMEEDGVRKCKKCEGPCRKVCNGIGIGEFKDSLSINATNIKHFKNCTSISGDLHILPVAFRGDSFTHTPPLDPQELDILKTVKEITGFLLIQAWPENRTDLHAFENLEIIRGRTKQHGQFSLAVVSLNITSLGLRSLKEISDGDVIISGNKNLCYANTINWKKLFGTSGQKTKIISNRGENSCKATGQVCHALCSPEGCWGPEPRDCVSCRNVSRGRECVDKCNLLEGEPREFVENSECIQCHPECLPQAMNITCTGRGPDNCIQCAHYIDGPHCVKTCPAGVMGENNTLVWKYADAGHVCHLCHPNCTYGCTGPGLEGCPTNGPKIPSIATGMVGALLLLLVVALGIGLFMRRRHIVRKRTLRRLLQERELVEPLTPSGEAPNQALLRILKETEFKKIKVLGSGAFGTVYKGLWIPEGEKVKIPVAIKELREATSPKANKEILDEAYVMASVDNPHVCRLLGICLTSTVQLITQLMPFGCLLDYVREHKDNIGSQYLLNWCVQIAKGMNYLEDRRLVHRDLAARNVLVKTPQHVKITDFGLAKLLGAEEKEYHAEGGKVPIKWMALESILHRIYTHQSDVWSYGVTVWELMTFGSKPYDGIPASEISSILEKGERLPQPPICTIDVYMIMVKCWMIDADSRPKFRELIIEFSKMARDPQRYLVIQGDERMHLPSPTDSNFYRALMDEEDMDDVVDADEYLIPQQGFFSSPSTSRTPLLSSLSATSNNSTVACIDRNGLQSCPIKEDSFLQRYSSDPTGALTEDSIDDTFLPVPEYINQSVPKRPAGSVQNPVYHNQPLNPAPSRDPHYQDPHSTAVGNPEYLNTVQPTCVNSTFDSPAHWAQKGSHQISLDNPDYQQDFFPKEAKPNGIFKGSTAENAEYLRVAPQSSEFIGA
IC50 [2],Compound,"EGFR autophosphorylation in A431 cells at 30 μM, before and after washout (Weste) [1]"
–,Nc1ccc2ncnc(Nc3cccc(Br)c3)c2c1 [RB10],"the naked inhibitor, RB10, was shown to have completely reversible inhibition of EGFR autophosphorylation"
–,CN(CO)/N=N/c1ccc2ncnc(Nc3cccc(Br)c3)c2c1 [RB14],"irreversible inhibition was observed in cells exposed to the daughter molecules, RB14 and ZR08"
~2000 nM,CC(=O)OCN(C)/N=N/c1ccc2ncnc(Nc3cccc(Br)c3)c2c1 [RB24],–
